Experimental findings from patent publication US20260015346A1, “GLUTATHIONE PEROXIDASE 4 (GPX4) INHIBITORS FOR THE TREATMENT OF CANCER” (Ferro Therapeutics, Inc., priority 2022, published 2026) are described below.

The nature of series [1]: Whole blood stability, rat. The series is classed as in vitro ADME. The following applies: read-out: T1/2 (min) Rat.
Series [2] is described as follows: Whole blood stability, mouse. The series is classed as in vitro ADME. The following applies: read-out: T1/2 (min) Mouse.
Series [3] deals with A431 (epidermoid carcinoma). As to the kind of experiment: Cell viability (Alamar Blue), 24-hour 2D viability, A431 cells. The following applies: Homo sapiens, A-431, 10% FBS. The format is cell-based, human. How it is done:
(§1) A cell viability assay is performed to assess the potency of the compounds in human cancer cell lines 786-O (renal cell carcinoma), SJSA-1 (osteosarcoma), and/or A431 (epidermoid carcinoma). Additional cell lines, such as pancreatic cancer cell lines (e.g., Panc 02.13, BxPC-3, Panc 12, Panc 02.03, Panc 6.03, PSN-1, HPAC, and Capan-1), prostate cancer cell lines (e.g., PC-3, DU145, 22Rv1, NCI-H660, BPH1, LNCaP, BM-1604, and MDA PCa 2b), etc., can be tested in a similar method.
(§2) Cells (SJSA-1, 786-0 and/or A431) are seeded (5000 cells/100 μL/well) in 96-well tissue culture plate and incubated at 37° C./5% CO2 for 16-24 hours. The cells are then treated with compounds (25 μL of 5×). The compound concentrations are 10-0.0005 μM prepared in 3-fold serial dilutions with final DMSO concentration of 1%. The plates are then incubated for 24 h at 37° C./5% CO2 in a moist environment. Then Alamar Blue™ reagent (final concentration 1×-12.5 μL) is added to each well and incubated for 1.5 hours at 37° C./5% CO2. The plates are read on fluorescence reader at 540 nanometer (nm) excitation and 590 nm emission wavelengths. The IC50 values are subsequently determined using a sigmoidal dose-response curve (variable slope) in GraphPad Prism® 5 software.
A general note: The colour change of resazurin is a common sign of viable cells or microbes.

Series [4] is described as follows: Whole blood stability, dog. The series is classed as in vitro ADME. To be noted: read-out: T1/2 (min) Dog.
The subject of series [5] is 786-O (renal cell carcinoma). Briefly: Cell viability (Alamar Blue), 24-hour 2D viability, 786-O cells. The format is cell-based, human. To be noted: Homo sapiens, 786-0, 24 h, 786-0 cells. On the procedure: as §1, §2

Like-named read-outs stand apart in the source and are kept apart here.

One may read the EC50 as the concentration at which the effect is half-maximal. `C#Cc1nc(C(=O)N2[C@@H](CCCC)Cc3cc(OC)ccc3[C@@H]2c2ccc(NC34CC5CC(CC(C5)C3)C4)cc2)cs1` [Compound 1a, ((1S,3S)-1-(4-(((3R,5R,7R)-adamantan-1-yl)amino)phenyl)-3-butyl-6-methoxy-3,4-dihydroisoquinolin-2(1H)-yl)(2-ethynylthiazol-4-yl)methanone]: the half-life in series [1] is over 289 min; in series [2] it was 211 min; in series [4], 249 min. Also, the EC50 in series [3] was over 10000 nM; in series [5] (10% FBS + 2 μM Fer-1, 24-hour 2D viability, read-out: EC50 (nM) 786-0 10% FBS + 2 μM Fer-1), over 10000 nM; in series [5] (10% FBS, 24-hour 2D viability, read-out: EC50 (nM) 786-0 10% FBS), 43.7 nM.
